Patent EP0415470A2, “Aminopeptidase” (CAMPINA MELKUNIE B.V., priority 1989, dated 1991)
“Also recorded” adds a separate entry of the source. Each block holds one molecule with its values, some of them ahead of it. Where a SMILES comes first, the peptide text is derived from it. The star is where a group is joined. pNA = O=[N+]([O-])c1ccc(N*)cc1

What was measured:
[1] = biological target: T1, aminopeptidase of L. lactis subsp. cremoris Wg2 (Lactococcus lactis subsp. cremoris, UniProt P0C2T8); type: biochemical
T1 sequence (P0C2T8 1-846): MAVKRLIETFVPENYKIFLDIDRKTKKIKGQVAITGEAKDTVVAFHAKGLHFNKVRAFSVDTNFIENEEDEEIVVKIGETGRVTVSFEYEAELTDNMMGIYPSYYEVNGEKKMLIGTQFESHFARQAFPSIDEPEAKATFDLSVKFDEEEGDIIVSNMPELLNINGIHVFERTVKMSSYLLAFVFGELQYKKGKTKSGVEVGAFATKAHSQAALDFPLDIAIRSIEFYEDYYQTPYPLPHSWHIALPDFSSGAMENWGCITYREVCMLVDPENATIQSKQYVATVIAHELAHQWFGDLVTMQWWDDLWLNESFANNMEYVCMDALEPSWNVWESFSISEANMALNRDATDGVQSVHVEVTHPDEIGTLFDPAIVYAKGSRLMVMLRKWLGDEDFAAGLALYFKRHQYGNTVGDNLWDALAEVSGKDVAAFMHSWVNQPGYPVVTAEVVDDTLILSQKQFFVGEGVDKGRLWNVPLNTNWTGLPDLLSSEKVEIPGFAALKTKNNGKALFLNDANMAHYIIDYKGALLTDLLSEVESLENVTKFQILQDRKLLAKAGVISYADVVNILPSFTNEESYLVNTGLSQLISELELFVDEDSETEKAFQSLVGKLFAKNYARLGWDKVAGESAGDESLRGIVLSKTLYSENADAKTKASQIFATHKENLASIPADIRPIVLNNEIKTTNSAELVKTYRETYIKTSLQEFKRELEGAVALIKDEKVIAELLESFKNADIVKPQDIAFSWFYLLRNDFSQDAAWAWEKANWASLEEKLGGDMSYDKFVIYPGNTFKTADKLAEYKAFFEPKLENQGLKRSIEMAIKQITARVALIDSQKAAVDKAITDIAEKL

[2] = biological target: T1, aminopeptidase of L. lactis subsp. cremoris Wg2; assay: Hydrolysis of lysyl-p-nitroanilide / X-p-nitroanilide substrates (release of p-nitroanilide at 410 nm); type: biochemical; parameters: The cell extract obtained after sonication and centrifugation of L. lactis subsp. cremoris Wg2; endogenous in cells; host or cells: Proteinase-negative variant of Lactococcus lactis subsp. cremoris Wg2; Enzyme purified from the cell-free extract by DEAE-Sephacel, phenyl-Sepharose, Sephadex G-100 SF and MA7P HPLC; not recombinant; conditions: relative hydrolysis velocity of X-p-nitroanilide substrates
Description: Hydrolysis of lysyl-p-nitroanilide was determined by the method of Exterkate, Neth. Milk Diary J. 29, 1975, 303-318. A 2 mM solution of lysyl-p-nitroanilide was incubated for 15 minutes with a suitable amount of enzyme. The reaction was stopped by adding acetic acid up to a final concentration of 10%, and the amount of p-nitroanilide was measured at 410 nm (Hitachi U-1100 spectrophotometer).
All measurements of enzyme activities were carried out at 30°C in 20 mM HEPES pH 7, unless specified.
The highest activity was found for lysyl-p-nitroanilide and to a lesser extent for leucyl-p-nitroanilide. […] The affinity of the enzyme for lysyl-p-nitroanilide was determined.

[3] = biological target: T1, aminopeptidase of L. lactis subsp. cremoris Wg2; assay: as above; conditions: for Relative activity (%): relative hydrolysis velocity of X-p-nitroanilide substrates
[4] = biological target: T1, aminopeptidase of L. lactis subsp. cremoris Wg2; type: biochemical; remark: listed apart in the source
[5] = biological target: T1, aminopeptidase of L. lactis subsp. cremoris Wg2; assay: Hydrolysis of peptides detected by thin-layer chromatography (TLC); type: biochemical; parameters: The cell extract obtained after sonication and centrifugation of L. lactis subsp. cremoris Wg2; endogenous in cells; host or cells: Proteinase-negative variant of Lactococcus lactis subsp. cremoris Wg2; Enzyme purified from the cell-free extract by DEAE-Sephacel, phenyl-Sepharose, Sephadex G-100 SF and MA7P HPLC; not recombinant; key to Activity: + : hydrolysis; - : no hydrolysis to be observed; conditions: for hydrolysis of peptides (in words): peptide as substrate of the aminopeptidase; for Activity: substrate specificity, 2 mM substrate, 20 mM HEPES pH 7, 60 min. at 30°C, TLC
Description: Hydrolysis of several peptides was detected by thin-­layer chromatography (TLC). Peptidase activity was determined as follows: the reaction mixture containing 2 mM substrate in 20 mM 4-(2-hydroxyethyl)-1-piperazine-ethanesulphonic acid (HEPES) pH 7 and a suitable amount of enzyme was incubated for 60 min. at 30°C. The reaction mixture (10 microliter) was then placed on a precoated silica gel 60 plate having a layer thickness of 0.25 cm (Merck, Darmstadt, West-Germany). A 75% (wt./vol.) phenol/water mixture and in some cases a 4/1/1 (vol./vol./vol.) mixture of n-butanol, acetic acid and water was used as mobile phase. As a control, 2 mM of each standard peptide was also placed on the plate. The silica gels were coloured by spraying them with 0.1% (wt./vol.) ninhydrin in 99% ethanol. Peptides and amino acids became visible after incubation of the silica gel in an oven for 5 min. at 80°C.

[6] = substrate: NCCCCC(N)C(=O)Nc1ccc([N+](=O)[O-])cc1; assay: purified protein, by the assay type; conditions: other: Lineweaver-Burk plot, substrate of the aminopeptidase; pH 7.0; 30.0 °C

Molecule: c1cnc2c(c1)ccc1cccnc12 [1,10-phenanthroline]
inhibition of the enzyme activity by chelating agents (in words) [1]: complete inhibition; also recorded: sensitivity

Molecule: C[C@H](N)C(=O)N1CCC[C@H]1C(=O)Nc1ccc([N+](=O)[O-])cc1 [Ala-Pro-pNA] (H-Ala-Pro-pNA)
Relative activity (%) [2]: 4%

Molecule: CC(N)C(=O)Nc1ccc([N+](=O)[O-])cc1 (stereo not drawn) [Ala-pNA]
Relative activity (%) [3]: 4%

Molecule: [Ca+2] [Ca⁺⁺]
inhibitory effect of divalent cations on the enzyme activity (in words) [1]: no inhibitory effect at all
restoration of the activity of the enzyme treated with 1,10-phenanthroline (in words) [1]: could not restore the enzyme activity

Molecule: OC(CS)C(O)CS (stereo not drawn) [DTT, dithiotreitol]
effect of chemical reagents on the aminopeptidase activity (in words) [1]: no inhibitory effect; also recorded: insensitive
inactivating effects of pCMB and mersalyl undone by reducing agent (in words) [4]: completely undone

Molecule: O=C(O)CN(CCN(CC(=O)O)CC(=O)O)CC(=O)O [EDTA]
inhibition of the enzyme activity by chelating agents (in words) [1]: complete inhibition; also recorded: sensitivity

Molecule: N[C@@H](CCC(=O)O)C(=O)Nc1ccc([N+](=O)[O-])cc1 [Glu-pNA]
Relative activity (%) [3]: < 1%

Molecule: NCC(=O)Nc1ccc([N+](=O)[O-])cc1 [Gly-pNA]
Relative activity (%) [3]: < 1%

hydrolysis of p-nitroanilide substrates (in words) [3]: hydrolyses
Relative activity (%) [3]: 24%
Molecule: CC(C)CC(N)C(=O)Nc1ccc([N+](=O)[O-])cc1 (stereo not drawn) [Leu-pNA, leucyl-p-nitroanilide]

hydrolysis of p-nitroanilide substrates (in words) [3]: hydrolyses
maximum peptide hydrolysis velocity ([3]; Lineweaver-Burk plot): 1 millimol/min./mg
Relative activity (%) [3]: 100%
Molecule: NCCCCC(N)C(=O)Nc1ccc([N+](=O)[O-])cc1 (stereo not drawn) [Lys-pNA, lysyl-p-nitroanilide]

Relative activity (%) [3]: 8%
Molecule: CSCCC(N)C(=O)Nc1ccc([N+](=O)[O-])cc1 (stereo not drawn) [Met-pNA, methionyl-p-nitroanilide]

Molecule: [Mg+2] [Mg⁺⁺]
inhibitory effect of divalent cations on the enzyme activity (in words) [1]: no inhibitory effect at all
restoration of the activity of the enzyme treated with 1,10-phenanthroline (in words) [1]: could not restore the enzyme activity

Molecule: CCN1C(=O)C=CC1=O [NEM, N-ethylmaleimide]
effect of chemical reagents on the aminopeptidase activity (in words) [1]: inhibitory effect; also recorded: strong inhibition

Molecule: NC(Cc1ccccc1)C(=O)Nc1ccc([N+](=O)[O-])cc1 (stereo not drawn) [Phe-pNA]
Relative activity (%) [3]: 4%

Molecule: O=C(Nc1ccc([N+](=O)[O-])cc1)C1CCCN1 (stereo not drawn) [Pro-pNA]
Relative activity (%) [3]: < 1%

Molecule: NC(=O)CI [iodoacetamide]
effect of chemical reagents on the aminopeptidase activity (in words) [1]: inhibitory effect; also recorded: strong inhibition

Molecule: COC(CNC(=O)c1ccccc1OCC(=O)O)[CH2][Hg][OH] (stereo not drawn) [mersalyl, O-(3-hydroxymercuri-2-methoxypropyl) carbamyl phenoxyacetate]
effect of chemical reagents on the aminopeptidase activity (in words) [1]: completely inhibited; also recorded: strong inhibition

Molecule: O=C(O)c1cc[c]([Hg][Cl])cc1 [pCMB, p-chloromercuribenzoate]
effect of chemical reagents on the aminopeptidase activity (in words) [1]: completely inhibited; also recorded: strong inhibition

Molecule: O=S(=O)(O)c1cc[c]([Hg][Cl])cc1 [pCMBS, p-chloromercuribenzenesulphonate]
effect of chemical reagents on the aminopeptidase activity (in words) [1]: completely inhibited; also recorded: strong inhibition

Molecule: OCCS [β-mercaptoethanol]
effect of chemical reagents on the aminopeptidase activity (in words) [1]: no inhibitory effect; also recorded: insensitive
inactivating effects of pCMB and mersalyl undone by reducing agent (in words) [4]: completely undone

Molecule: Bradykinin (RPPGFSPFR; Bradykinin; UniProt P01042 381-389, looked up)
hydrolysis of peptides (in words) [5]: hydrolyses; also recorded: can also act on
Activity [5]: +

Molecule: Leu-Leu
hydrolysis of peptides (in words) [5]: hydrolyses
Activity [5]: +

Molecule: PMSF
effect of chemical reagents on the aminopeptidase activity (in words) [1]: insensitive

Molecule: Phe-Leu
hydrolysis of peptides (in words) [5]: does not prove capable of significant hydrolysis
Activity [5]: -

Molecule: Phe-Val
hydrolysis of peptides (in words) [5]: does not prove capable of significant hydrolysis
Activity [5]: -

Molecule: alanyl-alanine [Ala-Ala]
hydrolysis of peptides (in words) ([5]; listed as ala-ala): does not prove capable of significant hydrolysis
hydrolysis of peptides (in words) ([5]; listed as alanyl-alanine): not
Activity [5]: -

Molecule: benzoyl-glycyl-lysine
hydrolysis of peptides (in words) [5]: does not seem capable of hydrolysis

Molecule: carbobenzoxy-prolylalanine
hydrolysis of peptides (in words) [5]: does not seem capable of hydrolysis

Molecule: carboxybenzoxy-phenylalanyl-alanine
hydrolysis of peptides (in words) [5]: does not seem capable of hydrolysis

B1: aminopeptidase of L. lactis subsp. cremoris Wg2 (Lactococcus cremoris) (protein)
chain: MAVKRLIETFVPENYKIFLDIDRKTKKIKGQVAITGEAKDTVVAFHAKGLHFNKVRAFSVDTNFIENEEDEEIVVKIGETGRVTVSFEYEAELTDNMMGIYPSYYEVNGEKKMLIGTQFESHFARQAFPSIDEPEAKATFDLSVKFDEEEGDIIVSNMPELLNINGIHVFERTVKMSSYLLAFVFGELQYKKGKTKSGVEVGAFATKAHSQAALDFPLDIAIRSIEFYEDYYQTPYPLPHSWHIALPDFSSGAMENWGCITYREVCMLVDPENATIQSKQYVATVIAHELAHQWFGDLVTMQWWDDLWLNESFANNMEYVCMDALEPSWNVWESFSISEANMALNRDATDGVQSVHVEVTHPDEIGTLFDPAIVYAKGSRLMVMLRKWLGDEDFAAGLALYFKRHQYGNTVGDNLWDALAEVSGKDVAAFMHSWVNQPGYPVVTAEVVDDTLILSQKQFFVGEGVDKGRLWNVPLNTNWTGLPDLLSSEKVEIPGFAALKTKNNGKALFLNDANMAHYIIDYKGALLTDLLSEVESLENVTKFQILQDRKLLAKAGVISYADVVNILPSFTNEESYLVNTGLSQLISELELFVDEDSETEKAFQSLVGKLFAKNYARLGWDKVAGESAGDESLRGIVLSKTLYSENADAKTKASQIFATHKENLASIPADIRPIVLNNEIKTTNSAELVKTYRETYIKTSLQEFKRELEGAVALIKDEKVIAELLESFKNADIVKPQDIAFSWFYLLRNDFSQDAAWAWEKANWASLEEKLGGDMSYDKFVIYPGNTFKTADKLAEYKAFFEPKLENQGLKRSIEMAIKQITARVALIDSQKAAVDKAITDIAEKL
Km [6]: 550 µM
Vmax [6]: 1000 µmol/min. mg protein
kcat [6]: 1580 s⁻¹
